Assay results from patent US20080200448A1, “New Pyridine Analogues VIII 518” (ASTRAZENECA AB, priority 2007, published 2008).

Target: T1, P2Y12 receptor (Homo sapiens, UniProt Q9H244)
T1 construct: expressed in transfected cells; host or cells: CHO cells (membrane preparation)
Test: Functional inhibition of 2-Me-S-ADP induced P2Y12 signalling (35S-GTPγS binding, cell membranes)
Type: biochemical
Conditions: 35S-GTPγS assay, membranes, EC80 concentration of 2-methyl-thio-adenosine diphosphate, 30° C. for 45 min; read-out: GTPγS (IC50 μM)
In short: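 Membranes (5 μg) from P2Y12-transfected CHO cells in pH 7.4 HEPES buffer with 10 μM GDP and saponin were stimulated with an EC80 of 2-methyl-thio-ADP plus compound and ^35S-GTPγS for 45 min at 30° C. Filter-retained ^35S-GTPγS was counted, normalised between agonist and no-agonist activity, and IC50 taken from a four-parameter fit.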

T1 sequence (Q9H244 whole entry): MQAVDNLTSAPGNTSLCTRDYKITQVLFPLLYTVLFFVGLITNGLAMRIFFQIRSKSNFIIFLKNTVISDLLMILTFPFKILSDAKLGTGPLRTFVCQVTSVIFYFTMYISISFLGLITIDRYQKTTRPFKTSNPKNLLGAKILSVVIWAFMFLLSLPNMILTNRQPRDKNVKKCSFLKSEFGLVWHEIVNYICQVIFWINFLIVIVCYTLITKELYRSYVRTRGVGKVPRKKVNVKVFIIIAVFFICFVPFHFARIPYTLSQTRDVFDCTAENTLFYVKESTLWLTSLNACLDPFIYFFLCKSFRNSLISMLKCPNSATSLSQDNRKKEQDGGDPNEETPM

| SMILES | IC50 [µM] |
| --- | --- |
| CCOC(=O)c1cc(C#N)c(N2CCC(C(=O)NS(=O)(=O)Nc3ccccc3)CC2)nc1CN1CCCC1=O [Example 55, Ethyl 6-{4-[(anilinosulfonyl)carbamoyl]piperidin-1-yl}-5-cyano-2-[(2-oxopyrrolidin-1-yl)methyl]nicotinate] | 0.03 |
| CCOC(=O)c1cc(C#N)c(N2CC(C(=O)NS(=O)(=O)Cc3ccccc3)C2)nc1CS(C)(=O)=O [Example 10, Ethyl 6-{3-[(benzylsulfonyl)carbamoyl]azetidin-1-yl}-5-cyano-2-[(methylsulfonyl)methyl]nicotinate] | 0.243 |
| CCOC(=O)c1cc(C#N)c(N2CCC(C(=O)N(CC(=O)O)S(=O)(=O)Cc3ccccc3)CC2)nc1C [Example 1, N-(benzylsulfonyl)-N-({1-[3-cyano-5-(ethoxycarbonyl)-6-methylpyridin-2-yl]piperidin-4-yl}carbonyl)glycine] | 0.093 |
| COC(=O)c1cc(Cl)c(N2CCC(C(=O)NS(=O)(=O)Cc3ccccc3)CC2)nc1CN1CCCCC1=O [Example 129, Methyl 6-{4-[(benzylsulfonyl)carbamoyl]piperidin-1-yl}-5-chloro-2-[(2-oxopiperidin-1-yl)methyl]nicotinate] | 1.58 |
| CCOC(=O)c1cc(C#N)c(N2CCC(C(=O)NS(=O)(=O)N(C)c3ccccc3)CC2)nc1CN1CCCCC1=O [Example 71, Ethyl 5-cyano-6-[4-({[methyl(phenyl)amino]sulfonyl}carbamoyl)piperidin-1-yl]-2-[(2-oxopiperidin-1-yl)methyl]nicotinate] | 0.036 |
| CC(C)OC(=O)c1cc(C#N)c(N2CCC(C(=O)NS(=O)(=O)Cc3ccc(F)cc3Cl)CC2)nc1CN1CCCC1=O [Example 49, Isopropyl 6-(4-{[(2-chloro-4-fluorobenzyl)sulfonyl]carbamoyl}piperidin-1-yl)-5-cyano-2-[(2-oxopyrrolidin-1-yl)methyl]nicotinate] | 0.066 |
| CC(C)OC(=O)c1cc(C#N)c(N2CCC(C(=O)NS(=O)(=O)Cc3ccc(F)cc3)CC2)nc1CN1CCCC1=O [Example 51, Isopropyl 5-cyano-6-(4-{[(4-fluorobenzyl)sulfonyl]carbamoyl}piperidin-1-yl)-2-[(2-oxopyrrolidin-1-yl)methyl]nicotinate] | 0.023 |
| CC(C)OC(=O)c1cc(C#N)c(N2CCC(C(=O)NS(=O)(=O)Cc3ccc(C(F)(F)F)cc3)CC2)nc1CN1CCCC1=O [Example 50, Isopropyl 5-cyano-2-[(2-oxopyrrolidin-1-yl)methyl]-6-[4-({[4-(trifluoromethyl)benzyl]sulfonyl}carbamoyl)piperidin-1-yl]nicotinate] | 0.02 |
| CCOC(=O)c1cc(C#N)c(N2CCC(C(=O)N(C)S(=O)(=O)Cc3ccccc3)CC2)nc1CN1CCCCC1=O [Example 128, Ethyl 6-{4-[(benzylsulfonyl)(methyl)carbamoyl]piperidin-1-yl}-5-cyano-2-[(2-oxopiperidin-1-yl)methyl]nicotinate] | 1.14 |
| CCOC(=O)c1cc(C#N)c(N2CCC(C(=O)NS(=O)(=O)Cc3ccc(C)cc3)CC2)nc1CN1CCCC1=O [Example 42, Ethyl 5-cyano-6-(4-{[(4-methylbenzyl)sulfonyl]carbamoyl}piperidin-1-yl)-2-[(2-oxopyrrolidin-1-yl)methyl]nicotinate] | 0.012 |
| CCOC(=O)c1cc(C#N)c(N2CCC(C(=O)NS(=O)(=O)Cc3ccccc3)CC2)nc1OCCO [Example 18, Ethyl 6-{4-[(benzylsulfonyl)carbamoyl]piperidin-1-yl}-5-cyano-2-(2-hydroxyethoxy)nicotinate] | 0.031 |
| CCOC(=O)c1cc(C#N)c(N2CCC(C(=O)NS(=O)(=O)Cc3ccccc3)CC2)nc1OCCNC(C)=O [Example 20, Ethyl 2-(2-acetamidoethoxy)-6-{4-[(benzylsulfonyl)carbamoyl]piperidin-1-yl}-5-cyanonicotinate] | 0.038 |
| CCOC(=O)c1cc(C#N)c(N2CCC(C(=O)NS(=O)(=O)Cc3ccc([Si](C)(C)C)cc3)CC2)nc1CN1CCCCC1=O [Example 102, Ethyl 5-cyano-2-[(2-oxopiperidin-1-yl)methyl]-6-[4-({[4-(trimethylsilyl)benzyl]sulfonyl}carbamoyl)piperidin-1-yl]nicotinate] | 0.934 |
| CCOC(=O)c1cc(C#N)c(N2CCC(C(=O)NS(=O)(=O)Cc3ccc(C(C)(C)C)cc3)CC2)nc1CN1CCCCC1=O [Example 103, Ethyl 6-(4-{[(4-tert-butylbenzyl)sulfonyl]carbamoyl}piperidin-1-yl)-5-cyano-2-[(2-oxopiperidin-1-yl)methyl]nicotinate] | 0.376 |
| CCOC(=O)c1cc(C#N)c(N2CCC(C(=O)NS(=O)(=O)Cc3ccc(F)cc3)CC2)nc1CN1CCCCC1=O [Example 62, Ethyl 5-cyano-6-(4-{[(4-fluorobenzyl)sulfonyl]carbamoyl}piperidin-1-yl)-2-[(2-oxopiperidin-1-yl)methyl]nicotinate] | 0.148 |
| CCOC(=O)c1cc(C#N)c(N2CCC(C(=O)NS(=O)(=O)Cc3ccccc3)CC2)nc1CN(C)C [Example 4, Ethyl 6-{4-[(benzylsulfonyl)carbamoyl]piperidin-1-yl}-5-cyano-2-[(dimethylamino)methyl]nicotinate] | 0.282 |

| SMILES | IC50 [µM] |
| --- | --- |
| CCOC(=O)c1cc(C#N)c(N2CCC(C(=O)NS(=O)(=O)N(C)c3ccccc3)CC2)nc1CN1CCCC1=O [Example 57, Ethyl 5-cyano-6-[4-({[methyl(phenyl)amino]sulfonyl}carbamoyl)piperidin-1-yl]-2-[(2-oxopyrrolidin-1-yl)methyl]nicotinate] | 0.013 |
| CCOC(=O)c1cc(C#N)c(N2CCC(C(=O)NS(=O)(=O)Cc3ccccc3)CC2)nc1OCCCC(C)=O [Example 121, Ethyl 6-{4-[(benzylsulfonyl)carbamoyl]piperidin-1-yl}-5-cyano-2-[(4-oxopentyl)oxy]nicotinate] | 0.017 |
| CCOC(=O)c1cc(C#N)c(N2CCC(C(=O)NS(=O)(=O)Cc3ccc(Cl)cc3)CC2)nc1CN1CCCC1=O [Example 39, Ethyl 6-(4-{[(4-chlorobenzyl)sulfonyl]carbamoyl}piperidin-1-yl)-5-cyano-2-[(2-oxopyrrolidin-1-yl)methyl]nicotinate] | 0.011 |
| CCOC(=O)c1cc(C#N)c(N2CCC(C(=O)NS(=O)(=O)Cc3ccccc3)CC2)nc1CN=[N+]=[N-] [Example 11, Ethyl 2-(azidomethyl)-6-{4-[(benzylsulfonyl)carbamoyl]piperidin-1-yl}-5-cyanonicotinate] | 0.025 |
| CCOC(=O)c1cc(C#N)c(N2CCC(C(=O)NS(=O)(=O)Nc3ccc(F)cc3)CC2)nc1CN1CCCC1=O [Example 77, Ethyl 5-cyano-6-[4-({[(4-fluorophenyl)amino]sulfonyl}carbamoyl)piperidin-1-yl]-2-[(2-oxopyrrolidin-1-yl)methyl]nicotinate] | 0.017 |
| CC(C)OC(=O)c1cc(C#N)c(N2CCC(C(=O)NS(=O)(=O)Cc3ccc(Cl)cc3F)CC2)nc1CN1CCCC1=O [Example 52, Isopropyl 6-(4-{[(4-chloro-2-fluorobenzyl)sulfonyl]carbamoyl}piperidin-1-yl)-5-cyano-2-[(2-oxopyrrolidin-1-yl)methyl]nicotinate] | 0.014 |
| CCOC(=O)c1cc(C#N)c(N2CCC(C(=O)NS(=O)(=O)CC3CCCCC3)CC2)nc1CN1CCCC1=O [Example 65, Ethyl 5-cyano-6-(4-{[(cyclohexylmethyl)sulfonyl]carbamoyl}piperidin-1-yl)-2-[(2-oxopyrrolidin-1-yl)methyl]nicotinate] | 0.021 |
| CCOC(=O)c1cc(C#N)c(N2CCC(C(=O)NS(=O)(=O)Cc3ccc(F)cc3F)CC2)nc1CN1CCCC1=O [Example 38, Ethyl 5-cyano-6-(4-{[(2,4-difluorobenzyl)sulfonyl]carbamoyl}piperidin-1-yl)-2-[(2-oxopyrrolidin-1-yl)methyl]nicotinate] | 0.0033 |
| CCOC(=O)c1cc(C#N)c(N2CCC(C(=O)NS(=O)(=O)Cc3ccccc3)CC2)nc1OC(C)=O [Example 2, Ethyl 2-acetoxy-6-{4-[(benzylsulfonyl)carbamoyl]piperidin-1-yl}-5-cyanonicotinate] | 0.024 |
| CCOC(=O)c1cc(C#N)c(N2CCC(C(=O)NS(=O)(=O)CC3CCC(C)CC3)CC2)nc1CN1CCCCC1=O (centres unmarked) [Example 58, Ethyl 5-cyano-6-[4-({[(4-methylcyclohexyl)methyl]sulfonyl}carbamoyl)piperidin-1-yl]-2-[(2-oxopiperidin-1-yl)methyl]nicotinate] | 0.164 |
| CCOC(=O)c1cc(C#N)c(N2CC(C(=O)NS(=O)(=O)Cc3ccccc3)C2)nc1COC(=O)CO [Example 14, Ethyl 6-{3-[(benzylsulfonyl)carbamoyl]azetidin-1-yl}-5-cyano-2-[(glycoloyloxy)methyl]nicotinate] | 0.044 |
| CCOC(=O)CCCc1nc(N2CCC(C(=O)NS(=O)(=O)Cc3ccccc3)CC2)c(C#N)cc1C(=O)OCC [Example 106, Ethyl 6-{4-[(benzylsulfonyl)carbamoyl]piperidin-1-yl}-5-cyano-2-(4-ethoxy-4-oxobutyl)nicotinate] | 0.066 |
| CC(C)OC(=O)c1cc(C#N)c(N2CCC(C(=O)NS(=O)(=O)Cc3ccccc3)CC2)nc1CN1CCCC1=O [Example 34, Isopropyl 6-{4-[(benzylsulfonyl)carbamoyl]piperidin-1-yl}-5-cyano-2-[(2-oxopyrrolidin-1-yl)methyl]nicotinate] | 0.033 |
| CCOC(=O)c1cc(C#N)c(N2CCC(C(=O)NS(=O)(=O)Cc3ccccc3)CC2)nc1OCC(=O)N(C)C [Example 125, Ethyl 6-{4-[(benzylsulfonyl)carbamoyl]piperidin-1-yl}-5-cyano-2-[2-(dimethylamino)-2-oxoethoxy]nicotinate] | 0.065 |
| CCOC(=O)c1cc(C#N)c(N2CC(C(=O)NS(=O)(=O)Cc3ccccc3)C2)nc1CSCC [Example 30, Ethyl 6-{3-[(benzylsulfonyl)carbamoyl]azetidin-1-yl}-5-cyano-2-[(ethylthio)methyl]nicotinate] | 0.106 |

Same assay, conditions: functional inhibition of 2-Me-S-ADP induced P2Y12 signalling; membranes from P2Y12 transfected CHO-cells; EC80 concentration of agonist; read-out: IC50

| SMILES | IC50 [µM] |
| --- | --- |
| CCOC(=O)c1cc(C#N)c(N2CCC(C(=O)NS(=O)(=O)Cc3ccccc3)CC2)nc1CN(C)C [Example 4, Ethyl 6-{4-[(benzylsulfonyl)carbamoyl]piperidin-1-yl}-5-cyano-2-[(dimethylamino)methyl]nicotinate] | 0.28 |
